This assay has as its target T1, human pancreas Glucokinase (GK) (Homo sapiens, UniProt P35557).
T1 construct: (His)6; made in house; host or cells: Escherichia coli
T1 sequence (P35557 1-465): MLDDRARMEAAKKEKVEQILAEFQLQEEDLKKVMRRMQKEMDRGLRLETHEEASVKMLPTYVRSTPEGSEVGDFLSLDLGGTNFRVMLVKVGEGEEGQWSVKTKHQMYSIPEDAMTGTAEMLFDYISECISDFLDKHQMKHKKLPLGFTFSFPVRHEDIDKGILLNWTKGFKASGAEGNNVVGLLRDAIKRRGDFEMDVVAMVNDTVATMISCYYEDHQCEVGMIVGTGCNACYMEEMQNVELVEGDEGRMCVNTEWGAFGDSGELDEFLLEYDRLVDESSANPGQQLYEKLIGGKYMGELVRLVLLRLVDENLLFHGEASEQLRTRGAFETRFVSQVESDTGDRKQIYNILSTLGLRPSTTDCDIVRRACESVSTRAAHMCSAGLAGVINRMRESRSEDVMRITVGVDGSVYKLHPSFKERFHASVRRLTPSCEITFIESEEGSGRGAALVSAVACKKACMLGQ
Put plainly: Glucokinase enzyme assay, Pancreas GK data. The conditions noted are these: for activation at 50 µM: compound 50 μM, percentage increase in GK activity above vehicle control, 12 mM glucose; for EC50: concentration producing 50% activation above vehicle control; for EC100%: concentration producing 100% activation above vehicle control. The format is biochemical. An excerpt: An enzymatic Glucokinase (GK) assay using purified recombinant human liver/pancreas enzyme was used to evaluate the effects of potential small molecule modulators.
In this assay, GK catalyzes glucose phosphorylation in the presence of ATP. The product of this reaction, glucose-6-phosphate, was then oxidized by an excess of glucose-6-phosphate dehydrogenase to produce gluconate-6-phosphate with concomitant reduction of nicotinamide adenine dinucleotide (NAD). […] Human GK (Liver/Pancreas) was expressed in Escherichia coli as a (His) 6-tagged fusion protein and was purified by metal chelate affinity chromatography. The assay was performed in a final incubation volume of 80 μl in a 96-well clear low UV absorption plates. The incubation mixture consisted of 25 mM HEPES, 2 mM MgSO4, 1 mM dithiothreotol (DTT), 1 mg/ml bovine serum albumin (BSA), 1 mM ATP, 1 mM NAD, and 12 mM glucose, 10 units per ml glucose-6-phosphate dehydrogenase, and +/−300 ng per ml GK. For determination of the affinity (Km) and Vmax, different concentrations of glucose ranging from 0.5 mM to 40 mM were used in the assay; see Grimsby, J., Sarabu, R.; Grippo, J. F.; et. al. Science 2003, 301, 370-373. Production of reduced NAD (Nicotinamide Adenine Dinucleotide) was measured as changes in absorption at 340 nm in 96-well plate reader (Envision model # 2101 Multilabel Plate reader). % Activation @ 50 μM was calculated as the percentage increase in GK activity above the vehicle control with the effective concentration of the compound being 50 μM. EC50% (μM) was calculated as the effective concentration of the compound that produces 50% activation above the vehicle control, and EC100% (μM) was calculated as the effective concentration of the compound that produces 100% activation above the vehicle control.

“And” between values parts separate entries of the source, which are not always exact repeats. Equal entries are not always repeated.

Turning to `O=C(CSC1c2ccccc2C(=O)N1Cc1ccc2c(c1)OCCO2)Nc1ccccn1` (stereo not drawn) [Compound 38, 2-[2-(2,3-Dihydro-benzo[1,4]dioxin-6-ylmethyl)-3-oxo-2,3-dihydro-1H-isoindol-1-ylsulfanyl]-N-pyridin-2-yl-acetamide], the activation at 50 µM came to 201%, the EC50 turned out to be 1000 nM and the “EC100%” value came to 3.8 µM.
With `COc1cc(CN2C(=O)c3ccccc3C2SCC(=O)Nc2ccccn2)cc(OC)c1OC` (stereo not drawn) [Compound 39, 2-[3-Oxo-2-(3,4,5-trimethoxy-benzyl)-2,3-dihydro-1H-isoindol-1-ylsulfanyl]-N-pyridin-2-yl-acetamide], the activation at 50 µM came to 193%, the EC50 worked out at 1400 nM and the “EC100%” value turned out to be 5.3 µM.
For `O=C(CSC1c2ccccc2C(=O)N1Cc1ccc(N2CCCC2=O)cc1)Nc1ccccn1` (stereo not drawn) [Compound 40, 2-{3-Oxo-2-[4-(2-oxo-pyrrolidin-1-yl)-benzyl]-2,3-dihydro-1H-isoindol-1-ylsulfanyl}-N-pyridin-2-yl-acetamide], in that order: 109%, 2100 nM and 16.1 µM.
Regarding `O=C(CSC1c2ccccc2C(=O)N1Cc1ccc2c(c1)OCO2)Nc1ccccn1` (stereo not drawn) [Compound 41, 2-(2-Benzo[1,3]dioxol-5-ylmethyl-3-oxo-2,3-dihydro-1H-isoindol-1-ylsulfanyl)-N-pyridin-2-yl-acetamide], the activation at 50 µM was 152%, the EC50 amounted to 2800 nM and the “EC100%” value was determined as 10 µM.
On to `COc1ccc(CN2C(=O)c3ccccc3C2SCC(=O)Nc2ccccn2)cc1OC` (stereo not drawn) [Compound 42, 2-[2-(3,4-Dimethoxybenzyl)-3-oxo-2,3-dihydro-1H-isoindol-1-ylsulfanyl]-N-pyridin-2-yl-acetamide], for which the EC50 is 540 nM and 780 nM; the “EC100%” value was 1.6 µM and 2.4 µM.
Consider `O=C(CSC1c2ccccc2C(=O)N1Cc1cccc2ccccc12)Nc1ccccn1` (stereo not drawn) [Compound 43, 2-(2-Naphthalen-1-ylmethyl-3-oxo-2,3-dihydro-1H-isoindol-1-ylsulfanyl)-N-pyridin-2-yl-acetamide], for which the activation at 50 µM was 112%, the EC50 is 4000 nM and the “EC100%” value is 7.1 µM.
For `O=C(CSC1c2ccccc2C(=O)N1Cc1ccc2sccc2c1)Nc1ccccn1` (stereo not drawn) [Compound 44, 2-(2-Benzo[b]thiophen-5-ylmethyl-3-oxo-2,3-dihydro-1H-isoindol-1-ylsulfanyl)-N-pyridin-2-yl-acetamide] the same measures were 116%, 890 nM and 5.9 µM.
For `Cc1[nH]c2ccc(CN3C(=O)c4ccccc4C3SCC(=O)Nc3ccccn3)cc2c1C` (stereo not drawn) [Compound 45, 2-[2-(2,3-Dimethyl-1H-indol-5-ylmethyl)-3-oxo-2,3-dihydro-1H-isoindol-1-ylsulfanyl]-N-pyridin-2-yl-acetamide] the same measures were 132%, 380 nM and 2 µM.
For `O=C(CSC1c2ccccc2C(=O)N1Cc1ccc(-n2cccc2)cc1)Nc1ccccn1` (stereo not drawn) [Compound 46, 2-[3-Oxo-2-(4-pyrrol-1-yl-benzyl)-2,3-dihydro-1H-isoindol-1-ylsulfanyl]-N-pyridin-2-yl-acetamide] the same measures were 106%, 800 nM and 4.8 µM.
Compound `O=C(CSC1c2ccccc2C(=O)N1Cc1ccc(-n2cccn2)cc1)Nc1ccccn1` (stereo not drawn) [Compound 47, 2-[3-Oxo-2-(4-pyrazol-1-yl-benzyl)-2,3-dihydro-1H-isoindol-1-ylsulfanyl]-N-pyridin-2-yl-acetamide] yielded an activation at 50 µM of 106% and an EC50 of 800 nM.
On to `O=C(CSC1c2ccccc2C(=O)N1Cc1ccc(OC(F)(F)F)cc1)Nc1ccccn1` (stereo not drawn) [Compound 48, 2-[3-Oxo-2-(4-trifluoromethoxybenzyl)-2,3-dihydro-1H-isoindol-1-ylsulfanyl]-N-pyridin-2-yl-acetamide], for which the activation at 50 µM was 174%, the EC50 worked out at 1600 nM and the “EC100%” value was determined as 6.9 µM.
For `COc1ccc(CN2C(=O)c3ccccc3C2SCC(=O)Nc2ccccn2)cc1` (stereo not drawn) [Compound 49, 2-[2-(4-Methoxybenzyl)-3-oxo-2,3-dihydro-1H-isoindol-1-ylsulfanyl]-N-pyridin-2-yl-acetamide], the activation at 50 µM was found to be 250%, the EC50 worked out at 210 nM and the “EC100%” value was found to be 0.86 µM.
For `CN(C)c1ccc(CN2C(=O)c3cccc(F)c3C2SCC(=O)Nc2ccccn2)cc1` (stereo not drawn) [Compound 51, 2-[2-(4-Dimethylaminobenzyl)-7-fluoro-3-oxo-2,3-dihydro-1H-isoindol-1-ylsulfanyl]-N-pyridin-2-yl-acetamide], in that order: 161%, 360 nM and 1.7 µM.
Take `COc1ccc(CN2C(=O)c3cccc(F)c3C2SCC(=O)Nc2ccccn2)cc1OC` (stereo not drawn) [Compound 52, 2-[2-(3,4-Dimethoxybenzyl)-7-fluoro-3-oxo-2,3-dihydro-1H-isoindol-1-ylsulfanyl]-N-pyridin-2-yl-acetamide]: the “EC100%” value is 0.056 µM and 0.066 µM.
Turning to `CCCCN1C(=O)c2ccccc2C1OCC(=O)Nc1nccs1` (stereo not drawn) [Compound 53, 2-(2-Butyl-3-oxo-2,3-dihydro-1H-isoindol-1-yloxy)-N-thiazol-2-yl-acetamide], the activation at 50 µM was found to be 101% and the EC50 is 18300 nM.
Regarding `O=C(CSC1c2ccccc2C(=O)N1Cc1ccc(F)cc1)Nc1ccc(C(=O)O)cn1` (stereo not drawn) [Compound 54, 6-{2-[2-(4-Fluorobenzyl)-3-oxo-2,3-dihydro-1H-isoindol-1-ylsulfanyl]-acetylamino}-nicotinic acid], the activation at 50 µM was determined as 358%, the EC50 was determined as 1100 nM and the “EC100%” value was 6.1 µM.
As for `COc1ccc(CN2C(=O)c3ccccc3C2SCC(=O)Nc2ccc(C(=O)O)cn2)cc1` (stereo not drawn) [Compound 55, 6-{2-[2-(4-Methoxybenzyl)-3-oxo-2,3-dihydro-1H-isoindol-1-ylsulfanyl]-acetylamino}-nicotinic acid], the activation at 50 µM worked out at 246%, the EC50 turned out to be 1350 nM and the “EC100%” value amounted to 3.4 µM.
For `COc1ccc(CN2C(=O)c3ccccc3C2SCC(=O)Nc2ccc(C(=O)O)cn2)cc1OC` (stereo not drawn) [Compound 56, 6-{2-[2-(3,4-Dimethoxybenzyl)-3-oxo-2,3-dihydro-1H-isoindol-1-ylsulfanyl]-acetylamino}-nicotinic acid] the same measures were 219%, 850 nM and 2.7 µM.
For `COc1ccc(CN2C(=O)c3c(F)ccc(F)c3C2SCC(=O)Nc2ccc(C(=O)O)cn2)cc1OC` (stereo not drawn) [Compound 57, 6-{2-[2-(3,4-Dimethoxybenzyl)-4,7-difluoro-3-oxo-2,3-dihydro-1H-isoindol-1-ylsulfanyl]-acetylamino}-nicotinic acid], the activation at 50 µM turned out to be 258%, the EC50 turned out to be 130 nM and the “EC100%” value turned out to be 0.4 µM.
In the case of `Cc1ccc2c(c1)C(OCC(=O)Nc1cnccn1)N(Cc1ccccc1)C2=O` (stereo not drawn) [Compound 58, 2-(2-Benzyl-6-methyl-3-oxo-2,3-dihydro-1H-isoindol-1-yloxy)-N-pyrazin-2-yl-acetamide], the activation at 50 µM was 70% and the EC50 was 27000 nM.

These data come from patent publication US7531671B2, “Dihydroisoindolones as allosteric modulators of glucokinase” (Janssen Pharmaceutica N.V., priority 2005, dated 2009).
